# Measurements reported in article PMC4992173, “Divergent synthesis and identification of the cellular targets of deoxyelephantopins” (Nature Communications, 2016).
# What was measured:
# [1] = biological target: T1, Zinc finger protein 346 (ZNF346) (Homo sapiens, UniProt Q9UL40); experiment: In situ competitive profiling in live MCF7 cells (LFQ): ZNF346; format: cell-based; conditions: 4 h, then 10 µM 24c, n=4
# T1 construct: 1,522 proteins were enriched from MCF7 cells by 10 μM probe 24c; endogenous in cells; host or cells: MCF7
# From the text: (§1) In our efforts to determine the direct molecular targets of deoxyelephantopin we first performed a gel-based competitive in situ proteomic profiling assay[41] […] While the greater conformational flexibility of probe 24c could potentially lead to more promiscuous target engagement relatively to deoxyelephantopin, it was favoured based on the fact that an alkyne moiety appended to the rigid scaffold of deoxyelephantopin may hinder some of its interactions. MCF7 cells were pretreated with various concentrations of deoxyelephantopin for 4 h, harvested, lysed and the lysates were treated with the fluorogenic probe 24c-Cy3 (10 μM; Supplementary Fig. 10). […] Furthermore, cells were pretreated with 20 μM concentration of deoxyelephantopin or 24c and the proteomic profiles were compared (Fig. 6b, Supplementary Fig. 11). Multiple bands were detected that were equally competed by both DEP and 24c, thus again confirming that 24c can be used as an acceptable clickable analogue of deoxyelephantopin in pulldown assays. Having established the optimal labelling conditions by SDS–PAGE, we next carried out a mass spectrometry-based competitive profiling assay[42] coupled with the method of stable isotope labelling of amino acids in culture (SILAC)[43]. […]
# (§2) Figure 6 Proteome-wide identification of deoxyelephantopin targets. […] Quantification was performed using label-free quantification (LFQ) method (n=4). […]
# [2] = biological target: T2, FLYWCH family member 2 (FLYWCH2) (Homo sapiens, UniProt Q96CP2); experiment: In situ competitive profiling in live MCF7 cells (LFQ): FLYWCH2; format: cell-based; conditions: protein FLYWCH2, 4 h, then 10 µM 24c, n=4
# T2 construct: endogenous in cells; host or cells: MCF7
# From the text: as §1, §2
# T1 sequence (Q9UL40 whole entry): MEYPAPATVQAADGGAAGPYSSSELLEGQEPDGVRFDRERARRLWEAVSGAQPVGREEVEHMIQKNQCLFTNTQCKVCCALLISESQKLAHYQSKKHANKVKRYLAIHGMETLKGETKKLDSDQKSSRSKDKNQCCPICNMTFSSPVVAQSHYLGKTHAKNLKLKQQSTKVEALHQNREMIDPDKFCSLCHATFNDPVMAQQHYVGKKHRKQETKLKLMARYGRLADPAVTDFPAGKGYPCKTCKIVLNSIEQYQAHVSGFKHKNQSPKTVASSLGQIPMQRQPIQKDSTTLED
# T2 sequence (Q96CP2 whole entry): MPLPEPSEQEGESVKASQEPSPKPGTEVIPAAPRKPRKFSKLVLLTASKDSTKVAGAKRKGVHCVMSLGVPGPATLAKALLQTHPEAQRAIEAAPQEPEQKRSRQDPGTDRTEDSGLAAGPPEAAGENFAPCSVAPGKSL
structure (smiles),measurement,setting,value
C=C(C)C(=O)O[C@H]1CC2=C[C@@H](C/C(C)=C/[C@H]3OC(=O)C(=C)[C@H]13)OC2=O [deoxyelephantopin],LFQ ratio 20 µM Deoxyelephantopin/DMSO with 24c,[1],0.00
same,LFQ ratio 20 µM Deoxyelephantopin/DMSO with 24c,[2],0.19
